Measured values published in ChEMBL document CHEMBL1147574, “Synthesis of a novel peptidic photoaffinity probe for the PTP-1B enzyme” (Bioorg Med Chem Lett, 2004).

Columns and labels:
[1] = Inhibitory activity of compound against phosphotyrosine phosphatase-1B
[2] = Percent adduct formed by co-valent binding to the enzyme was assessed by irradiating a solution of the photoprobe and the PTP1B enzyme with a 40W lamp

Compound | IC50 [1] [nM] | Adduct formation [2] [%]
NC(=O)[C@H](Cc1ccc(C(F)(F)P(=O)(O)O)cc1)NC(=O)[C@H](Cc1ccc(C(F)(F)P(=O)(O)O)cc1)NC(=O)c1cc(Br)cc(C2(C(F)(F)F)N=N2)c1 | 12 | 
NC(=O)[C@H](Cc1ccc(C(F)(F)P(=O)(O)O)cc1)NC(=O)[C@H](Cc1ccc(C(F)(F)P(=O)(O)O)cc1)NC(=O)c1cc(I)cc(C2(C(F)(F)F)N=N2)c1 | 9 | 8
NC(=O)[C@H](Cc1ccc(C(F)(F)P(=O)(O)O)cc1)NC(=O)c1cc(Br)cc(C2(C(F)(F)F)N=N2)c1 | 9500 | 
NC(=O)[C@H](Cc1ccc(C(F)(F)P(=O)(O)O)cc1)NC(=O)[C@H](Cc1ccc(C(F)(F)P(=O)(O)O)cc1)NC(=O)[C@H](CCC(=O)O)NC(=O)c1cc(Br)cc(C2(C(F)(F)F)N=N2)c1 | 14 | 8
NC(=O)[C@H](Cc1ccc(C(F)(F)P(=O)(O)O)cc1)NC(=O)[C@H](Cc1ccc(C(F)(F)P(=O)(O)O)cc1)NCc1cc(Br)cc(C2(C(F)(F)F)N=N2)c1 | 1700 | 
NC(=O)[C@H](Cc1ccc(C(F)(F)P(=O)(O)O)c(Br)c1)NC(=O)[C@H](Cc1ccc(C(F)(F)P(=O)(O)O)c(Br)c1)NC(=O)c1cc(I)cc(C2(C(F)(F)F)N=N2)c1 | 4 | 8
NC(=O)[C@H](Cc1ccc(C(F)(F)P(=O)(O)O)cc1)NC(=O)[C@H](Cc1cc(Br)cc(C2(C(F)(F)F)N=N2)c1)NC(=O)c1cc(Br)cc(C2(C(F)(F)F)N=N2)c1 | 15 | < 5
NC(=O)[C@H](Cc1ccc(C(F)(F)P(=O)(O)O)c(Br)c1)NC(=O)[C@H](Cc1ccc(C(F)(F)P(=O)(O)O)c(Br)c1)NC(=O)c1cc(Br)cc(C2(C(F)(F)F)N=N2)c1 | 0.3 | 6
NC(=O)[C@H](Cc1ccc(C(F)(F)P(=O)(O)O)cc1)NC(=O)[C@H](Cc1ccc(C(F)(F)P(=O)(O)O)cc1)NC(=O)[C@H](CCC(=O)O)NCc1cc(Br)cc(C2(C(F)(F)F)N=N2)c1 | 3 | 5
